According to patent US20090264415A2 (priority 2004, published 2009):
Read-outs that look alike come from different tables or passages of the source.

Test system: peripheral blood mononuclear cells (PBMC) stimulated with allogeneic PBMC or EBV-transformed human B cells (RPMI1788)
Assay: Mixed lymphocyte reaction (MLR) assay
Format: cell-based
Protocol: Pyrido[3,2-d]pyrimidine derivatives were first dissolved (10 mM) in dimethyl-sulfoxide (hereinafter referred as DMSO) and further diluted in culture medium before use for the following in vitro experiments. […] Some pyrido[3,2-d]pyrimidine derivatives described herein were tested in the following mixed lymphocyte reaction (MLR) assay.
Peripheral blood mononuclear cells (hereinafter referred as PBMC) were isolated from heparinized peripheral blood by density gradient centrifugation over Lymphoprep (Nycomed, Maorstua, Norway). Allogeneic PBMC or Eppstein-Barr Virus-transformed human B cells [commercially available under the trade name RPM11788 (ATCC name CCL156)] which strongly express B7-1 and B7-2 antigens were used as stimulator cells after irradiation with 30 Gy. MLR was performed in triplicate wells. After 5 days incubation at 37° C., 1 μCi [^3H]-thymidine was added to each cup. After a further 16 hours incubation, cells were harvested and counted in a β-counter. Inhibition of proliferation by a compound described in some of the present examples was counted while using the formula: [formula] wherein cpm is the thymidine count per minute. The MLR assay is regarded by those skilled in the art as an in vitro analogue of the transplant rejection since it is based on the recognition of allogeneic major histocompatibility antigens on the stimulator leukocytes, by responding lymphocytes.

[1] = Homo sapiens, RPMI-1788, MLR assay of example 319, read-out: MLR IC50
[2] = 50% suppression of the MLR, [3H]-thymidine incorporation, read-out: MLR

| Structure (SMILES) | IC50 [1] [nM] | IC50 [2] [nM] |
| --- | --- | --- |
| CC(=O)Oc1ccc(-c2ccc3nc(N)nc(N4CCN(C(=O)COc5ccc(Cl)cc5)CC4)c3n2)cc1 [Example 504, 2-amino-4-[N-(4-chlorophenoxyacetyl)-piperazin-1-yl]-6-(4-acetoxy-phenyl)-pyrido(3,2-d)pyrimidine] | 50 |  |
| Cc1cccc(NC(=O)N2CCN(c3nc(-c4ccccc4)nc4ccc(-c5ccc(F)cc5)nc34)CC2)c1 [Example 533, 2-phenyl-4-[N-(3-methylphenylcarbamoyl)piperazin-1-yl]-6-(4-fluorophenyl)-pyrido[3,2-d]pyrimidine] | 2600 |  |
| Cc1cccc(NC(=O)N2CCN(c3nc(N)nc4ccc(-c5ccccc5C#N)nc34)CC2)c1 [Example 546, 2-amino-4-[(3-methylphenylcarbamoyl)-piperazin-1-yl]-6-(2-cyano-phenyl)-pyrido[3,2-d]pyrimidine] | 4 |  |
| Nc1nc(N2CCN(C(=O)COc3ccc(Cl)cc3)CC2)c2nc(-c3ccc(C(F)(F)F)cc3)ccc2n1 [Example 399, 2-amino-4-[4-(4-chlorophenoxyacetyl)piperazin-1-yl]-6-(4-trifluoromethylphenyl)-pyrido[3,2-d]pyrimidine] | 500 |  |
| Cc1cccc(NC(=O)N[C@H]2CCN(c3nc(N)nc4ccc(-c5ccc(F)cc5)nc34)C2)c1 [Example 578] | > 10000 |  |
| COc1ccc(-c2ccc3nc(N4CCOCC4)nc(N4CCN(C(=O)Nc5cccc(C)c5)CC4)c3n2)cc1OC [Example 88] |  | 400 |
| Nc1nc(N2CCN(C(=O)CC(=O)Nc3ccc(Cl)cc3)CC2)c2nc(-c3ccc(F)cc3)ccc2n1 [Example 490, 2-amino-4-[4-(4-chlorophenylcarbamoyl-acetyl)piperazin-1-yl]-6-(4-fluorophenyl)-pyrido[3,2-d]pyrimidine] | 340 |  |
| CCc1ccc(-c2ccc3nc(N)nc(N4CCN(C(=O)COc5ccc(Cl)cc5)CC4)c3n2)cc1 [Example 508, 2-amino-4-[N-(4-chlorophenoxyacetyl)-piperazin-1-yl]-6-(4-ethylphenyl)-pyrido(3,2-d)pyrimidine] | 12 |  |
| Nc1nc(NC2CCN(C(=O)COc3ccccc3)CC2)c2nc(-c3ccc(F)cc3)ccc2n1 [Example 485, 2-amino-4-[1-(phenoxyacetyl)piperid-4-ylamino]-6-(4-fluorophenyl)-pyrido[3,2-d]pyrimidine] | 300 |  |
| CCCCOc1nc(N2CCN(C(=O)Nc3cccc(C)c3)CC2)c2nc(-c3ccc(OC)c(OC)c3)ccc2n1 [Example 89, 2-butoxy-4-[(N-3-methyl-phenylcarbamoyl)-piperazin-1-yl]-6-(3,4-dimethoxyphenyl)-pyrido[3,2-d]pyrimidine] |  | 2000 |
| C[C@@H]1CN(C(=O)COc2ccc(Cl)cc2)CCN1c1nc(N)nc2ccc(-c3ccc(F)cc3)nc12 [Example 482, (R)-2-amino-4-[4-(4-chlorophenoxyacetyl)-2-methylpiperazin-1-yl]-6-(4-fluorophenyl)-pyrido[3,2-d]pyrimidine] | 500 |  |
| CCOC(=O)c1ccc(-c2ccc3nc(N)nc(N4CCN(C(=O)COc5ccc(Cl)cc5)CC4)c3n2)cc1 [Example 510, 2-amino-4-[N-(4-chlorophenoxyacetyl)-piperazin-1-yl]-6-(4-ethoxycarbonylphenyl)-pyrido(3,2-d)pyrimidine] | 32 |  |
| Cc1cccc(NC(=O)N2CCN(c3nc(N)nc4ccc(-c5ccc(C(F)(F)F)cc5)nc34)CC2)c1 [Example 548, 2-amino-4-[(3-methylphenylcarbamoyl)-piperazin-1-yl]-6-(4-trifluoromethylphenyl)-pyrido[3,2-d]pyrimidine] | 170 |  |
| Cc1cccc(NC(=O)N2CCN(c3nc(N)nc4ccc(-c5ccncc5)nc34)CC2)c1 [Example 542, 2-amino-4-[(3-methylphenylcarbamoyl)-piperazin-1-yl]-6-(4-pyridyl)-pyrido[3,2-d]pyrimidine] | 5 |  |
| COc1cc(-c2ccc3nc(N)nc(N4CCN(C(=O)COc5ccc(Cl)cc5)CC4)c3n2)ccc1OCc1ccccc1 [Example 501, 2-amino-4-[N-(4-chlorophenoxyacetyl)-piperazin-1-yl]-6-(3-methoxy-4-benzyloxyphenyl)-pyrido(3,2-d)pyrimidine] | > 10000 |  |
| COc1ccc(-c2ccc3nc(Cl)nc(N4CCN(C(=O)Nc5cccc(C)c5)CC4)c3n2)cc1OC [Example 14] |  | 66 |
| Cc1cccc(NC(=O)N2CCN(c3ncnc4ccc(-c5ccccc5C#N)nc34)CC2)c1 [Example 557, 4-[(3-methylphenylcarbamoyl)-piperazin-1-yl]-6-(2-cyanophenyl)pyrido[3,2-d]pyrimidine] | 30 |  |

| Structure (SMILES) | IC50 [1] [nM] | IC50 [2] [nM] |
| --- | --- | --- |
| CNC(=O)c1ccc(-c2ccc3nc(N)nc(N4CCN(C(=O)COc5ccc(Cl)cc5)CC4)c3n2)cc1 [Example 443, 2-amino-4-[4-(4-chlorophenoxyacetyl)piperazin-1-yl]-6-[4-(methylaminocarbonyl)phenyl]-pyrido-[3,2-d]pyrimidine] | 7 |  |
| Nc1nc(N2CCN(C(=O)COc3ccc(Cl)cc3)CC2)c2nc(-c3ccc(F)cc3F)ccc2n1 [Example 423, 2-amino-4-[4-(4-chlorophenoxyacetyl)piperazin-1-yl]-6-(2,4-difluorophenzyl)pyrido-[3,2-d]pyrimidine] | 100 |  |
| COc1cc(-c2ccc3nc(N)nc(N4CCN(C(=O)COc5ccc(Cl)cc5)CC4)c3n2)ccc1O [Example 496, 2-amino-4-[N-(4-chlorophenoxyacetyl)-piperazin-1-yl]-6-(3-methoxy-4-hydroxyphenyl)-pyrido(3,2-d)pyrimidine] | 71 |  |
| CCNC(=O)N1CCN(c2nc(N)nc3ccc(-c4ccc(F)cc4)nc23)CC1 [Example 450, 2-amino-4-[4-(N-ethylcarbamoyl)-piperazin-1-yl]-6-(4-fluorophenyl)-pyrido[3,2-c]pyrimidine] | 500 |  |
| COc1ccc(-c2ccc3ncnc(N4CCN(C(=O)Nc5ccc(F)cc5)CC4)c3n2)cc1OC [Example 111, 4-[(N-4-fluorophenylcarbamoyl)-piperazin-1-yl]-6-(3,4-dimethoxyphenyl)-pyrido[3,2-d]pyrimidine] |  | 30 |
| Nc1nc(N2CCN(C(=O)CNC(=O)c3ccccc3)CC2)c2nc(-c3ccc(F)cc3)ccc2n1 [Example 478, N-(2-{4-[2-amino-6-(4-fluorophenyl)-pyrido[3,2-d]pyrimidin-4-yl]-piperazin-1-yl}-2-oxoethyl)benzamide] | 5 |  |
| Nc1nc(N2CCN(C(=O)COc3ccc(Cl)cc3)CC2)c2nc(-c3cccc(Cl)c3)ccc2n1 [Example 406, 2-amino-4-[4-(4-chlorophenoxyacetyl)piperazin-1-yl]-6-(3-chlorophenyl)pyrido-[3,2-d]pyrimidine] | 70 |  |
| CC(C)(C)OC(=O)N[C@H]1CCN(c2nc(N)nc3ccc(-c4ccc(F)cc4)nc23)C1 [Example 576, 2-amino-4-[(S)-3-Boc-amino-pyrrolidin-1-yl]-6-(4-fluorophenyl)-pyrido(3,2-d)pyrimidine] | 4200 |  |
| Nc1nc(N2CCN(C(=O)COc3ccc(Cl)cc3)CC2)c2nc(-c3cc(Cl)ccc3Cl)ccc2n1 [Example 429, 2-amino-4-[4-(4-chlorophenoxyacetyl)piperazin-1-yl]-6-(2,5-dichlorophenyl)-pyrido-[3,2-d]pyrimidine] | 500 |  |
| Nc1nc(N2CCN(C(=O)COc3ccc(Cl)cc3)CC2)c2nc(-c3c(F)cccc3Cl)ccc2n1 [Example 442, 2-amino-4-[4-(4-chlorophenoxyacetyl)piperazin-1-yl]-6-(2-chloro-6-fluorophenyl)-pyrido-[3,2-d]pyrimidine] | 300 |  |
| CC(C)(Oc1ccc(Cl)cc1)C(=O)N1CCN(c2nc(N)nc3ccc(-c4ccc(F)cc4)nc23)CC1 [Example 472, 2-amino-4-{4-[2-(4-chlorophenoxy)-2-methylpropionyl]-piperazin-1-yl}-6-(4-fluorophenyl)-pyrido[3,2-d]pyrimidine] | > 10000 |  |
| Nc1nc(N2CCN(C(=O)COc3ccc4ccccc4c3)CC2)c2nc(-c3ccc(F)cc3)ccc2n1 [Example 383, 2-amino-4-[4-(2-naphthoxyacetyl)piperazin-1-yl]-6-(4-fluorophenyl)-pyrido[3,2-d]pyrimidine] | 500 |  |
| N#Cc1ccccc1-c1ccc2nc(N)nc(N3CCN(C(=O)COc4ccc(Cl)cc4)CC3)c2n1 [Example 416, 2-amino-4-[4-(4-chlorophenoxyacetyl)piperazin-1-yl]-6-(2-cyanophenyl)pyrido-[3,2-d]pyrimidine] | 12 |  |
| Cc1ccc(-c2ccc3nc(N)nc(N4CCN(C(=O)COc5ccc(Cl)cc5)CC4)c3n2)cc1N [Example 507, 2-amino-4-[N-(4-chlorophenoxyacetyl)-piperazin-1-yl]-6-(3-amino-4-methylphenyl)-pyrido(3,2-d)pyrimidine] | 29 |  |
| CC(C)(C)OC(=O)N1CCN(c2nc(NC3CCCC3)nc3ccc(-c4ccc(F)cc4)nc23)CC1 [Example 568, 2-cyclopentylamino-6-(4-fluorophenyl)-4-(4-Boc-piperazino)-pyrido[3,2-d]pyrimidine] | 6500 |  |
| COc1cccc(-c2ccc3nc(N)nc(N4CCN(C(=O)COc5ccc(Cl)cc5)CC4)c3n2)c1 [Example 418, 2-amino-4-[4-(4-chlorophenoxyacetyl)piperazin-1-yl]-6-(3-methoxyphenyl)pyrido-[3,2-d]pyrimidine] | 57 |  |
